According to US20230278984A1 (Global Blood Therapeutics, Inc., priority 2020, published 2023):

Target: T1, Human pyruvate kinase R (PKR) (Homo sapiens, UniProt P30613)
T1 construct: Human pyruvate kinase R (PKR), residues 14-574; 6x-His (N, cleaved yes); 8x-Arg (N, cleaved yes); SUMO (N, cleaved yes); host or cells: E. coli
Experiment: Biochemical assay for activation of pyruvate kinase R (Kinase-Glo luminescence measurement of ATP generation)
Details: for AC50: PKR biochemical assay, 0.1 nM PKR, 0.3 mM ADP, 2 mM FBP, 0.1 mM PEP; for Emax: maximal activation level relative to the activation level achieved by the literature compound AG-348 @ 10 μM
Outline: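 Recombinant human PKR (residues 14-574), E. coli-expressed with His-Arg-SUMO tag removed, purified by Ni-NTA, anion exchange and size exclusion. Activation measured as ATP generation via Kinase-Glo luminescence.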

T1 sequence (P30613 14-574): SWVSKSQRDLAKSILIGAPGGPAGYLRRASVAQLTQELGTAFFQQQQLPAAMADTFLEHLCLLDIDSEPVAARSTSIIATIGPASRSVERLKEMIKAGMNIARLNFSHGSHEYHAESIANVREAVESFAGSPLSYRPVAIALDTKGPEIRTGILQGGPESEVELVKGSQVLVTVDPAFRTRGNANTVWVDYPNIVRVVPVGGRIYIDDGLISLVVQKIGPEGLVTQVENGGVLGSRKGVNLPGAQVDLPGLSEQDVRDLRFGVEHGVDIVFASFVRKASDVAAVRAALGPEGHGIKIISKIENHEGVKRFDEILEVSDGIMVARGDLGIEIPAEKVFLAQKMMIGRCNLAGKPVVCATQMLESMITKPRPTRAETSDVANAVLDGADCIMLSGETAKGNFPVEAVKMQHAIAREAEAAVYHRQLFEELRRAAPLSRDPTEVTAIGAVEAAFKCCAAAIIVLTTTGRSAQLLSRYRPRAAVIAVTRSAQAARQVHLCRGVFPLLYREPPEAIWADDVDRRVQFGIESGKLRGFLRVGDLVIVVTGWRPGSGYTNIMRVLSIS

Row | AC50 | Emax | Compound
1 | 270 nM | 79% | CCN(Cc1ncnn1-c1ccc(OC)nc1)C(=O)NCc1nc(C)nn1-c1ccc(Cl)c(F)c1 [Compound 124, 3-{[1-(4-chloro-3-fluorophenyl)-3-methyl-1H-1,2,4-triazol-5-yl]methyl}-1-ethyl-1-{[1-(6-methoxypyridin-3-yl)-1H-1,2,4-triazol-5-yl]methyl}urea]
2 | 3800 nM | 81% | Cc1nc(CNC(=O)NCc2ncnn2-c2cc3ccccc3cn2)n(-c2ccc(Cl)c(F)c2)n1 [Compound 125, 1-{[1-(4-chloro-3-fluorophenyl)-3-methyl-1H-1,2,4-triazol-5-yl]methyl}-3-{[1-(isoquinolin-3-yl)-1H-1,2,4-triazol-5-yl]methyl}urea]
3 | 67 nM | 84% | Cc1nc(CNC(=O)NCc2ncnn2-c2cnc3ccccc3c2)n(-c2ccc(Cl)c(F)c2)n1 [Compound 126, 1-{[1-(4-chloro-3-fluorophenyl)-3-methyl-1H-1,2,4-triazol-5-yl]methyl}-3-{[1-(quinolin-3-yl)-1H-1,2,4-triazol-5-yl]methyl}urea]
4 | 47 nM | 45% | Cc1nc(CNC(=O)NCc2ncnn2-c2ccc3ncncc3c2)n(-c2ccc(Cl)c(F)c2)n1 [Compound 127, 1-{[1-(4-chloro-3-fluorophenyl)-3-methyl-1H-1,2,4-triazol-5-yl]methyl}-3-{[1-(quinazolin-6-yl)-1H-1,2,4-triazol-5-yl]methyl}urea]
5 | 24 nM | 59% | Cc1nc(CNC(=O)NCc2ncnn2-c2ccn3ccnc3c2)n(-c2ccc(Cl)c(F)c2)n1 [Compound 128, 1-{[1-(4-chloro-3-fluorophenyl)-3-methyl-1H-1,2,4-triazol-5-yl]methyl}-3-[(1-{imidazo[1,2-a]pyridin-7-yl}-1H-1,2,4-triazol-5-yl)methyl]urea]
6 | 430 nM | 72% | Cc1nc(CNC(=O)NCc2ncnn2-c2cccnc2)n(-c2ccc(Cl)c(F)c2)n1 [Compound 129, 1-{[1-(4-chloro-3-fluorophenyl)-3-methyl-1H-1,2,4-triazol-5-yl]methyl}-3-{[1-(pyridin-3-yl)-1H-1,2,4-triazol-5-yl]methyl}urea]
7 | 300 nM | 84% | COc1ccc(-n2ncnc2CNC(=O)NCc2nc(C)nn2-c2ccc(Cl)c(F)c2)nc1 [Compound 130, 1-{[1-(4-chloro-3-fluorophenyl)-3-methyl-1H-1,2,4-triazol-5-yl]methyl}-3-{[1-(5-methoxypyridin-2-yl)-1H-1,2,4-triazol-5-yl]methyl}urea]
8 | 78 nM | 94% | Cc1nc(CNC(=O)NCc2ncnn2-c2ccc(C3CC3)nc2)n(-c2ccc(Cl)c(F)c2)n1 [Compound 131, 1-{[1-(4-chloro-3-fluorophenyl)-3-methyl-1H-1,2,4-triazol-5-yl]methyl}-3-{[1-(6-cyclopropylpyridin-3-yl)-1H-1,2,4-triazol-5-yl]methyl}urea]
9 | 490 nM | 64% | Cc1nc(CNC(=O)NCc2ncnn2-c2ccc(C3CCC3)nc2)n(-c2ccc(Cl)c(F)c2)n1 [Compound 132, 1-{[1-(4-chloro-3-fluorophenyl)-3-methyl-1H-1,2,4-triazol-5-yl]methyl}-3-{[1-(6-cyclobutylpyridin-3-yl)-1H-1,2,4-triazol-5-yl]methyl}urea]
10 | 160 nM | 86% | Cc1nc(CNC(=O)NCc2ncnn2-c2cncc(C3CC3)c2)n(-c2ccc(Cl)c(F)c2)n1 [Compound 133, 1-{[1-(4-chloro-3-fluorophenyl)-3-methyl-1H-1,2,4-triazol-5-yl]methyl}-3-{[1-(5-cyclopropylpyridin-3-yl)-1H-1,2,4-triazol-5-yl]methyl}urea]
11 | 170 nM | 110% | COc1cncc(-n2ncnc2CNC(=O)NCc2nc(C)nn2-c2ccc(Cl)c(F)c2)c1 [Compound 134, 1-{[1-(4-chloro-3-fluorophenyl)-3-methyl-1H-1,2,4-triazol-5-yl]methyl}-3-{[1-(5-methoxypyridin-3-yl)-1H-1,2,4-triazol-5-yl]methyl}urea]
12 | 86 nM | 117% | Cc1nc(CNC(=O)NCc2ncnn2-c2cnc3cc(F)ccc3c2)n(-c2ccc(Cl)c(F)c2)n1 [Compound 135, 1-{[1-(4-chloro-3-fluorophenyl)-3-methyl-1H-1,2,4-triazol-5-yl]methyl}-3-{[1-(7-fluoroquinolin-3-yl)-1H-1,2,4-triazol-5-yl]methyl}urea]
13 | 47 nM | 94% | Cc1nc(CNC(=O)NCc2ncnn2-c2cnc3c(F)cccc3c2)n(-c2ccc(Cl)c(F)c2)n1 [Compound 136, 3-{[1-(4-chloro-3-fluorophenyl)-3-methyl-1H-1,2,4-triazol-5-yl]methyl}-1-{[1-(8-fluoroquinolin-3-yl)-1H-1,2,4-triazol-5-yl]methyl}urea]
14 | 180 nM | 99% | Cc1cncc(-n2ncnc2CNC(=O)NCc2nc(C)nn2-c2ccc(Cl)c(F)c2)c1 [Compound 137, 1-{[1-(4-chloro-3-fluorophenyl)-3-methyl-1H-1,2,4-triazol-5-yl]methyl}-3-{[1-(5-methylpyridin-3-yl)-1H-1,2,4-triazol-5-yl]methyl}urea]
15 | 44 nM | 129% | Cc1nc(CNC(=O)NCc2nc(C)nn2-c2cnc3ccccc3c2)n(-c2ccc(Cl)c(F)c2)n1 [Compound 138, 1-{[1-(4-chloro-3-fluorophenyl)-3-methyl-1H-1,2,4-triazol-5-yl]methyl}-3-{[3-methyl-1-(quinolin-3-yl)-1H-1,2,4-triazol-5-yl]methyl}urea]
16 | 61 nM | 96% | Cc1nc(CNC(=O)NCc2ncnn2-c2cnc3ccc(F)cc3c2)n(-c2ccc(Cl)c(F)c2)n1 [Compound 139, 1-{[1-(4-chloro-3-fluorophenyl)-3-methyl-1H-1,2,4-triazol-5-yl]methyl}-3-{[1-(6-fluoroquinolin-3-yl)-1H-1,2,4-triazol-5-yl]methyl}urea]
17 | 25 nM | 72% | Cc1nc(CNC(=O)NCc2ncnn2-c2cnc3cccc(F)c3c2)n(-c2ccc(Cl)c(F)c2)n1 [Compound 140, 1-{[1-(4-chloro-3-fluorophenyl)-3-methyl-1H-1,2,4-triazol-5-yl]methyl}-3-{[1-(5-fluoroquinolin-3-yl)-1H-1,2,4-triazol-5-yl]methyl}urea]
18 | 140 nM | 71% | CCc1ccc(-n2ncnc2CNC(=O)NCc2nc(C)nn2-c2ccc(Cl)c(F)c2)cn1 [Compound 141, 1-{[1-(4-chloro-3-fluorophenyl)-3-methyl-1H-1,2,4-triazol-5-yl]methyl}-3-{[1-(6-ethylpyridin-3-yl)-1H-1,2,4-triazol-5-yl]methyl}urea]
19 | 250 nM | 127% | CCN(Cc1ncnn1-c1cnc2ccccc2c1)C(=O)NCc1nc(C)nn1-c1ccc(Cl)c(F)c1 [Compound 142, 1-{[1-(4-chloro-3-fluorophenyl)-3-methyl-1H-1,2,4-triazol-5-yl]methyl}-3-ethyl-3-{[1-(quinolin-3-yl)-1H-1,2,4-triazol-5-yl]methyl}urea]
20 | 140 nM | 112% | CCN(Cc1ncnn1-c1ccc(Cl)c(F)c1)C(=O)NCc1nc(C)nn1-c1cnc2ccccc2c1 [Compound 143, 1-{[1-(4-chloro-3-fluorophenyl)-1H-1,2,4-triazol-5-yl]methyl}-1-ethyl-3-{[3-methyl-1-(quinolin-3-yl)-1H-1,2,4-triazol-5-yl]methyl}urea]
